Measurements reported in patent US9901583B2, “Method of treating non-small cell lung cancer and/or small cell lung cancer using thienotriazolodiazepine compounds” (ONCOETHIX GMBH, priority 2014, dated 2018).
Where “and” joins values, the source holds several entries; their conditions need not be identical. Equal entries are not always repeated.

Tests used:
[1] = system: Akt phosphorylation on S473; conditions: cited from earlier work
[2] = system: Akt phosphorylation on T308; conditions: cited from earlier work
[3] = system: PI3K/mTOR; conditions: cited from earlier work
[4] = system: PDGFR; conditions: read-out: IC50 PDGFR; cited from earlier work
[5] = target: PI3Kγ (p110γ) (Homo sapiens, UniProt P48736); conditions: cited from earlier work
Chain of PI3Kγ (p110γ) (P48736 whole entry, species assumed): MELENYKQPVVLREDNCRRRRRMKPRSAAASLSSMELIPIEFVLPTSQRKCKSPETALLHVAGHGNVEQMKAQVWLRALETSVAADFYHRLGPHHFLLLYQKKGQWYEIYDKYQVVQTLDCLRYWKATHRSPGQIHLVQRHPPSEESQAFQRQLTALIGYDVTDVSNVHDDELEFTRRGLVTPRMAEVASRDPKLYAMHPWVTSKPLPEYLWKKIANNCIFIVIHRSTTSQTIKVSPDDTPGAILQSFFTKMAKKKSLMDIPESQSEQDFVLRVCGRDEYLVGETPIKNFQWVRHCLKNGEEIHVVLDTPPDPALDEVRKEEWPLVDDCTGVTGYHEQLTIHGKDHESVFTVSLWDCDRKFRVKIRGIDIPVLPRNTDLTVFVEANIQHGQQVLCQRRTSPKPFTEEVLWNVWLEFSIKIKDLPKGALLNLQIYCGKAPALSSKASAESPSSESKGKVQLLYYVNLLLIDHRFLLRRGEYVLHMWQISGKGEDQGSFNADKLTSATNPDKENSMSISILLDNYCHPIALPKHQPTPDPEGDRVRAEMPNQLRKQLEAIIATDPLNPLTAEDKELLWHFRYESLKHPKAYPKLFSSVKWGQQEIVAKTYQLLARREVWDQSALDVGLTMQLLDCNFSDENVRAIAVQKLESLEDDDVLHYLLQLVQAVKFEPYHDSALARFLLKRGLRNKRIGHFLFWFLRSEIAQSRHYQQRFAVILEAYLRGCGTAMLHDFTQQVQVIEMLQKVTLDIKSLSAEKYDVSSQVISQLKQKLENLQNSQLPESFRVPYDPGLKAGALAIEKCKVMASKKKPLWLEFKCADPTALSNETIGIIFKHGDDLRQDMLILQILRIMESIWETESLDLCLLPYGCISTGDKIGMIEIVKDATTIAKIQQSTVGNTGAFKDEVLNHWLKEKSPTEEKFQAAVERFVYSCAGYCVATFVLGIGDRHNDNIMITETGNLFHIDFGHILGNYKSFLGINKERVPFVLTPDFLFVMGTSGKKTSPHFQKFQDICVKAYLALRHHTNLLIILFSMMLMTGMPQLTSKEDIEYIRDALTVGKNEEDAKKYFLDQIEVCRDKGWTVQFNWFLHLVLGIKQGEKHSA

[6] = target: PI3Kβ (p110β) (Homo sapiens, UniProt P42338); conditions: cited from earlier work
Chain of PI3Kβ (p110β) (P42338 whole entry, species assumed): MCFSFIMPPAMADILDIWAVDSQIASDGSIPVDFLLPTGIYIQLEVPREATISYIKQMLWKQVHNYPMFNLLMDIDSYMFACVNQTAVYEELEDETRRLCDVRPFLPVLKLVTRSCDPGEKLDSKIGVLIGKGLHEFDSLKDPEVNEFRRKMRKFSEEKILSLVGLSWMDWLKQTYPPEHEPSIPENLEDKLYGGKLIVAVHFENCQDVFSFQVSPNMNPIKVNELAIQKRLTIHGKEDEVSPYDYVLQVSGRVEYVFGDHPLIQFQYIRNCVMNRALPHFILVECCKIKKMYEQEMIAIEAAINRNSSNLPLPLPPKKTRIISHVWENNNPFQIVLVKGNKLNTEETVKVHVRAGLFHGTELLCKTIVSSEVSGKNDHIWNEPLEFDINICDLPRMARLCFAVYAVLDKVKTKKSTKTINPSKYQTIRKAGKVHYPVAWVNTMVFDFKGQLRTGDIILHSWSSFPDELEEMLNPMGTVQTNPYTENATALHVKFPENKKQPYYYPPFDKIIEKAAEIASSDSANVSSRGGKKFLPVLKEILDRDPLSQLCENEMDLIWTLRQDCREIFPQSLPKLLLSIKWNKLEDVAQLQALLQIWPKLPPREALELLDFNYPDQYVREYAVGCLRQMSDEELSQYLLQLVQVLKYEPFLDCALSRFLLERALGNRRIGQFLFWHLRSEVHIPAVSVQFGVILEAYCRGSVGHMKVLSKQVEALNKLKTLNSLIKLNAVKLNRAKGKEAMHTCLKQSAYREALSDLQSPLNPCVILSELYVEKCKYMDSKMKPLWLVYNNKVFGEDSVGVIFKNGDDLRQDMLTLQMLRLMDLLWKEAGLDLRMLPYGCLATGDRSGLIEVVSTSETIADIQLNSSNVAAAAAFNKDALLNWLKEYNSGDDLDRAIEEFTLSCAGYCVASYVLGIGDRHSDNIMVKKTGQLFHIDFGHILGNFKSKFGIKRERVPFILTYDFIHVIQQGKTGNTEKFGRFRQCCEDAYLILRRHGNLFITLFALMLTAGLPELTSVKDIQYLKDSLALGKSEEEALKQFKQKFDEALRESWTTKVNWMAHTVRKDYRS
Chain of PI3Kβ (p110β) (P27986 whole entry partner, species assumed): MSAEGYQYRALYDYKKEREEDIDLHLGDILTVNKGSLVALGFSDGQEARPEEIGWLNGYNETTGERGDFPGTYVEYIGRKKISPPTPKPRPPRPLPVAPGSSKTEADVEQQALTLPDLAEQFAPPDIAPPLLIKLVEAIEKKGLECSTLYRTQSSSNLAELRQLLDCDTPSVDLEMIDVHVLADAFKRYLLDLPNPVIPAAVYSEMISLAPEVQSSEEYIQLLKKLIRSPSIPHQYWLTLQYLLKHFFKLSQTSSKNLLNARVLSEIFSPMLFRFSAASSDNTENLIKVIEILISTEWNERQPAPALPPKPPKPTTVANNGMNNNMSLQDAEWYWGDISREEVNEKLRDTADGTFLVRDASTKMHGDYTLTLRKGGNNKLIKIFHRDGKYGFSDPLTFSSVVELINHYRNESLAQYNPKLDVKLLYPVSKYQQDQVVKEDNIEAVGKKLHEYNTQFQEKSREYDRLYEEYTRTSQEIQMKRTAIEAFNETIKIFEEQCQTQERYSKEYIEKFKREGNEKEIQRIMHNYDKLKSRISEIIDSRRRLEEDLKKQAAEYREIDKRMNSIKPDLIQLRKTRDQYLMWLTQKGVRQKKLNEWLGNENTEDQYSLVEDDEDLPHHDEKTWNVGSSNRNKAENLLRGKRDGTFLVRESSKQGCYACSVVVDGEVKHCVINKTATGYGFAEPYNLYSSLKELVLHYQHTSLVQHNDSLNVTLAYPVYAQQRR

[7] = system: H69 cells; assay: MTT assay, growth inhibition; assay type: cell-based; conditions: Homo sapiens, NCI-H69, 72 h exposure
Procedure: (§1) Protein levels were analyzed by Western Blot using commercial antibodies and RT-PCR was performed with Fast SYBR Green Master Mix on a StepOnePlus Real-Time PCR System at baseline, then 4 and 24 h post-treatment. For cell cycle analysis, cells were stained with propidium iodide and analyzed for DNA content with a FACScan flow cytometer.
(§2) Cell lines were exposed to increasing doses of compound (1-1) for 72 hours, and cell proliferation was evaluated with the MTT assay. GI50 and Emax values were calculated with the equation for sigmoidal dose response using Prism 5.00 for Windows. Results represent the mean±95% CI of at least 3 independent experiments performed in triplicate.
(§3) For cell cycle analysis, cells were stained with propidium iodide and analyzed with a FACScan flow cytometer. RNA was isolated after treatment with DMSO or OTX015 (500 nM) for 2, 4, 8 or 12 and 24 h and gene expression profiles (GEP) were obtained in all NSCLC and 2 SCLC (H82 and DMS114) cell lines with Illumina HumanHT-12 Expression BeadChips. Data mining was done with LIMMA, GSEA, Metacore.

[8] = system: DMS114 cells; assay: MTT assay, growth inhibition; assay type: cell-based; conditions: Homo sapiens, DMS-114, read-out: GI50 (95% CI), 72 h exposure
Procedure: as §1, §2, §3

[9] = system: H82 cells; assay: MTT assay, growth inhibition; assay type: cell-based; conditions: Homo sapiens, NCI-H82, 72 h exposure
Procedure: as §1, §2, §3

[10] = system: DMS79 cells; assay: MTT assay, growth inhibition; assay type: cell-based; conditions: Homo sapiens, DMS-79, 72 h exposure
Procedure: as §1, §2, §3

[11] = system: H2226; assay: Cell cycle analysis (propidium iodide, FACScan); assay type: cell-based; conditions: H2226, 24 h exposure at 500 nM
[12] = system: H2228 cells; assay: Combination with crizotinib, Chou-Talalay combination index; assay type: cell-based; conditions: 48 h concomitant exposure, dihydrate
Procedure: (§4) Protein levels were analyzed by Western Blot with commercial antibodies; RT-PCR was done with Fast SYBR Green Master Mix on a StepOnePlus Real-Time PCR System at baseline, 4 and 24 h post-treatment. For cell cycle analysis cells were stained with propidium iodide and DNA content analyzed with a FACScan flow cytometer. Compound (1-1) was combined with the targeted agents everolimus and crizotinib and the combination index (CI) determined by the Chou-Talalay method.
(§5) Materials and Methods. Five established NSCLC cell lines, HOP62, HOP92, A549, H2228, and H3122 harboring different oncogenic mutations for KRAS, LKB I, TP53 and ALK (FIG. 13) were exposed to increasing doses of compound (1-1) (OncoEthix SA, Switzerland) for 72 h and cell proliferation was evaluated by MTT assays. Results represent the mean±95% CI of at least 3 independent experiments performed in triplicate. Protein levels were analyzed by Western blot using commercial antibodies. For cell cycle analysis cells were stained with PI and analyzed using a FACScan flow cytometer after 24 h of treatment. […] Concomitant compound (1-1) combination studies were performed in cell lines exposed for 48 h to increasing doses of compound (1-1) alone or in combination with everolimus or crizotinib, and assessed using the Chou & Talalay method. Combination Index (CI) was determined by median effect plot analysis using CalcuSyn software. […]

[13] = Oral exposure in the rat (pharmacokinetics); assay type: in vivo, Sprague Dawley rats; conditions: 1 mg/kg intravenous, rats
Procedure: The oral bioavailability of three formulations of solid dispersions of compound (1-1) was determined in rats. The three dispersions chosen were the 25% dispersion of compound (1-1) in PVP, the 25% dispersion of compound (1-1) in HPMCAS-MG, and the 50% dispersion of compound (1-1) in HPMCAS-MG. The animals used in the study were Specific Pathogen Free (SPF) Hsd:Sprague Dawley rats obtained from the Central Animal Laboratory at the University of Turku, Finland. The rats were originally purchased from Harlan, The Netherlands. The rats were female and were ten weeks of age, and 12 rats were used in the study. […]
The oral dosing solutions containing the 25% dispersion of compound (1-1) in PVP, the 25% dispersion of compound (1-1) in HPMCAS-MG, and the 50% dispersion of compound (1-1) in HPMCAS-MG were prepared by adding a pre-calculated amount of sterile water for injection to containers holding the dispersion using appropriate quantities to obtain a concentration of 0.75 mg/mL of compound (1-1). […]
Pharmacokinetic parameters were calculated with the Phoenix WinNonlin software package (version 6.2.1, Pharsight Corp., CA, USA) with standard noncompartmental methods. The elimination phase half-life (t1/2) was calculated by least-squares regression analysis of the terminal linear part of the log concentration-time curve. […]

[14] = system: HOP92; assay: Cell cycle analysis (propidium iodide, FACScan); assay type: cell-based; conditions: HOP92, 24 h exposure at 500 nM
Procedure: as §4, §5

[15] = system: H3122; assay: Cell cycle analysis (propidium iodide, FACScan); assay type: cell-based; conditions: H3122, 24 h exposure at 500 nM
Procedure: as §4, §5

[16] = system: NSCLC cell lines (H2228, H3122, A549, HOP62, HOP92); assay: MTT assay, growth inhibition, NSCLC panel; assay type: cell-based; conditions: 72 h, 72 h exposure, 4 of 5 NSCLC cell lines
Procedure: as §4, §5

[17] = system: H3122 cells; assay: H3122 tumor-bearing mice; assay type: in vivo, male athymic NMRI nude mice; conditions: 3 weeks of treatment
Procedure: In vivo studies: 5×10^6 H3122 cells were injected in the flank of male athymic NMRI nude mice, and mice were randomized to 3 groups (8 mice/group) when tumor volume reach 100 mm^3; vehicle (PBS, once daily, oral continuous), Compound (1-1) (50 mg/kg/bidaily, gavage, continuous), or crizotinib (25 mg/kg/daily, gavage, continuous).

[18] = target: FKBP12 (Homo sapiens, UniProt P62942); conditions: cited from earlier work
Chain of FKBP12 (P62942 whole entry, species assumed): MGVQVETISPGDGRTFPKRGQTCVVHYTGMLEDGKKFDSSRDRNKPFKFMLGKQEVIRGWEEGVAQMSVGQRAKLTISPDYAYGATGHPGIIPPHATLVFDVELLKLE

COc1ccc(-c2cc3c(C)nc(N)nc3n([C@H]3CC[C@H](OCCO)CC3)c2=O)cn1 [PF-04691502]
IC50 [1]: 3.8 nM | IC50 [2]: 7.5 nM

COc1ccc(-c2ccc3ncc4c(c3c2)n(-c2ccc(N3CCNCC3)c(C(F)(F)F)c2)c(=O)n4C)cn1 [NVP-BGT226]
IC50 [3]: 1 nM

Nc1ncnc2c1c(-c1cnc3[nH]ccc3c1)nn2C1CCCC1 [PP-121]
IC50 [4]: 2 nM

GSK2126458
Ki [5]: 0.024 nM | Ki [6]: 0.13 nM

Cc1sc2c(c1C)C(c1ccc(Cl)cc1)=N[C@@H](CC(=O)Nc1ccc(O)cc1)c1nnc(C)n1-2 [Compound (1-1), 2-[(6S)-4-(4-chlorophenyl)-2,3,9-trimethyl-6H-thienol[3,2-f]-[1,2,4]triazolo[4,3-a][1,4]diazepin-6-yl]-N-(4-hydroxyphenyl)acetamide dihydrate]
GI50 [7]: > 6000 nM | GI50 [8]: 120 nM | GI50 [9]: > 6000 nM | GI50 [10]: > 6000 nM | reduction of percent cells in the S phase [11]: 42% | combination index (CI) with crizotinib [12]: 0.98 and 0.9 | CI/F [13]: 13.4 mL/min/kg | reduction of percent cells in the S phase [14]: 40% | reduction of percent cells in the S phase [15]: 52% | GI50 [16]: 110 to 940 nM | weight loss [17]: no weight loss was observed

CO[C@H]1C[C@@H]2CC[C@@H](C)[C@@](O)(O2)C(=O)C(=O)N2CCCC[C@H]2C(=O)O[C@H]([C@H](C)C[C@@H]2CC[C@@H](OCCO)[C@H](OC)C2)CC(=O)[C@H](C)/C=C(\C)[C@@H](O)[C@@H](OC)C(=O)[C@H](C)C[C@H](C)/C=C/C=C/C=C/1C [Everolimus]
IC50 [18]: 1.6 to 2.4 nM
